Data from ChEMBL document CHEMBL5385908, “Screening Ultra-Large Encoded Compound Libraries Leads to Novel Protein-Ligand Interactions and High Selectivity” (J Med Chem, 2024).

Tests used:
Protein phosphatase 1D = molecular target: T1, Protein phosphatase 1D (Homo sapiens, UniProt O15297); assay: Inhibition of N-terminal FLAG-His8-tagged human Wip1 (2 to 420 residues) expressed in bac-to-bac baculovirus expression system infected Sf9 cells
T1 sequence (O15297 whole entry): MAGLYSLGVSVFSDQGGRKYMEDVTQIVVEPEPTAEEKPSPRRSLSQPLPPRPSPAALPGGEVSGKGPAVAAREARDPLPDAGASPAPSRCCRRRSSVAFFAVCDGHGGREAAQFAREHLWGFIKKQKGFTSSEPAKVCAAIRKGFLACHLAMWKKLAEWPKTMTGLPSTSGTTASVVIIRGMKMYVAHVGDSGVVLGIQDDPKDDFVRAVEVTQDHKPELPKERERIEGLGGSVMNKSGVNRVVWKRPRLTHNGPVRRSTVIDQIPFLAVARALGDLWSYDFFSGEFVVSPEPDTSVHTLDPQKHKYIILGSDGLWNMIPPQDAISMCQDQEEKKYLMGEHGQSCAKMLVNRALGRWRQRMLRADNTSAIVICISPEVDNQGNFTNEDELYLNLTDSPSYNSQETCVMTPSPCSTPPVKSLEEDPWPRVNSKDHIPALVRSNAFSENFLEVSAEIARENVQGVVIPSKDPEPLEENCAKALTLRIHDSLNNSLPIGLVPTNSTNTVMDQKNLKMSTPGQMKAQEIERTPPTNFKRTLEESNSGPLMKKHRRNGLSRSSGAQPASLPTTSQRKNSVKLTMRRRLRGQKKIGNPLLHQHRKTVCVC

[1] = molecular target: T2, ATPase family AAA domain-containing protein 2 (Homo sapiens, UniProt Q6PL18); assay: Inhibition of N-terminal Hexahistidine-GST-tagged human ATAD2 bromodomain expressed in Escherichia coli BL21 (DE3) Rosetta cells incubated for 1 hr by FRET analysis
T2 sequence (Q6PL18 whole entry): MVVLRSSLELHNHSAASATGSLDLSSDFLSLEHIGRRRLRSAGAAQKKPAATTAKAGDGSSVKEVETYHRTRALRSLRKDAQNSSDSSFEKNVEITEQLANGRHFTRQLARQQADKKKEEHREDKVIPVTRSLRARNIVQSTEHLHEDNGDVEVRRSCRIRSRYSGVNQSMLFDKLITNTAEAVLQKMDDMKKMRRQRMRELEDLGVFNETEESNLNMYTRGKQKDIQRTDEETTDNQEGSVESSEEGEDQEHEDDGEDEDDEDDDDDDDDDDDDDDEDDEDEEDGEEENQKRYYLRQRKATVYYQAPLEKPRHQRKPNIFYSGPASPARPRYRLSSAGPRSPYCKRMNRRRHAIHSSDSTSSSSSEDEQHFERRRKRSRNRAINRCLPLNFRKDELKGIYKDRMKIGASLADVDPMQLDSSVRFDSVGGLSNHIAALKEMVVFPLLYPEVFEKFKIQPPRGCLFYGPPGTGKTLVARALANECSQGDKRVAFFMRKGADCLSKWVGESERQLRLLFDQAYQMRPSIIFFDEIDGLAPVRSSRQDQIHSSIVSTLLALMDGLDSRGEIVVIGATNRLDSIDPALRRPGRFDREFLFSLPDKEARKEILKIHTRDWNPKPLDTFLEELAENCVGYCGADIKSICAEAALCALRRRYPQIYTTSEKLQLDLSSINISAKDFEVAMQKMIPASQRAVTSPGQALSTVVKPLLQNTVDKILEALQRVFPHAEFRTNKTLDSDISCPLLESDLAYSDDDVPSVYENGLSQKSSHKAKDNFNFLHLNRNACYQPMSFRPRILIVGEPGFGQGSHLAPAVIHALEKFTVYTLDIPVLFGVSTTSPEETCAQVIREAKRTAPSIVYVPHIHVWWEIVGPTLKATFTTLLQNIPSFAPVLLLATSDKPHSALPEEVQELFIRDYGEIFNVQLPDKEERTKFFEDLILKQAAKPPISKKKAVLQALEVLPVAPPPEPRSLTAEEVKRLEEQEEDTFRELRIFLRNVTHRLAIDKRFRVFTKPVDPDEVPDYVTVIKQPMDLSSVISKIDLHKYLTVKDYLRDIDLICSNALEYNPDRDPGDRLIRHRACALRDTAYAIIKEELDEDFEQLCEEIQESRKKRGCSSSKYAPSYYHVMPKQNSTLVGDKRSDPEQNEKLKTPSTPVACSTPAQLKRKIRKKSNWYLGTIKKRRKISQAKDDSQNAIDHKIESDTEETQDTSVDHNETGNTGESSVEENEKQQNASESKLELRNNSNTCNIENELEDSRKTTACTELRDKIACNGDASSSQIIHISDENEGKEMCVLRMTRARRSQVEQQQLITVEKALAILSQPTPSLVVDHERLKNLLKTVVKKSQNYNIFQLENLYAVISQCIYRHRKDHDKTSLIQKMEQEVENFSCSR

[2] = molecular target: T3, Receptor-type tyrosine-protein kinase FLT3 (Homo sapiens, UniProt P36888); assay: Inhibition of wild type FLT3 (unknown origin)
T3 sequence (P36888 whole entry): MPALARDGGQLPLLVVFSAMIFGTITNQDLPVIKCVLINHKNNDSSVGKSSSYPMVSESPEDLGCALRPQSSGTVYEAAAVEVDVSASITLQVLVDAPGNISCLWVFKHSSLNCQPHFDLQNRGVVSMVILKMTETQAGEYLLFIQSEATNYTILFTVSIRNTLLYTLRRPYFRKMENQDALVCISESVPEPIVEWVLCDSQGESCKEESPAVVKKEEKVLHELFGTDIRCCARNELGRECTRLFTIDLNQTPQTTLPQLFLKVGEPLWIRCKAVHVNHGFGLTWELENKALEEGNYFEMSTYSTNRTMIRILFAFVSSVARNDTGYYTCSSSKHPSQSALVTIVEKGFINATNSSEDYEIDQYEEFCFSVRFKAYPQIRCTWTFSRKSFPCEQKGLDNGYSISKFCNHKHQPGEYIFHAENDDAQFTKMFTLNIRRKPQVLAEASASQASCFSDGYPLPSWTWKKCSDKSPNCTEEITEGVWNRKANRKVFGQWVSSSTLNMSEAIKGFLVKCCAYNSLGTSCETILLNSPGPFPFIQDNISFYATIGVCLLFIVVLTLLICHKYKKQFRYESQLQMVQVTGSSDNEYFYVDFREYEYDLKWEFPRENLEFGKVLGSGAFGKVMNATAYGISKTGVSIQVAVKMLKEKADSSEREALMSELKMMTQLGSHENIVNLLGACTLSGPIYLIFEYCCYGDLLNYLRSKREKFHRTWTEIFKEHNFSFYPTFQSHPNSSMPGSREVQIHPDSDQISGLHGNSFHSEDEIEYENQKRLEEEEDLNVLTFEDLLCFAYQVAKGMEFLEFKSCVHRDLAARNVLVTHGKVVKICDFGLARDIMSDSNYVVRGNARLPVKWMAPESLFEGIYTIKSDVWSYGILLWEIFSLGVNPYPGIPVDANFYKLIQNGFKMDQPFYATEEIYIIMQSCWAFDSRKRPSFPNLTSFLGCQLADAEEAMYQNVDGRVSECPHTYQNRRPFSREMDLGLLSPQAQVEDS

[3] = molecular target: T4, Tyrosine-protein kinase receptor UFO (Homo sapiens, UniProt P30530); assay: Inhibition of AXL (unknown origin) by FRET assay
T4 sequence (P30530 whole entry): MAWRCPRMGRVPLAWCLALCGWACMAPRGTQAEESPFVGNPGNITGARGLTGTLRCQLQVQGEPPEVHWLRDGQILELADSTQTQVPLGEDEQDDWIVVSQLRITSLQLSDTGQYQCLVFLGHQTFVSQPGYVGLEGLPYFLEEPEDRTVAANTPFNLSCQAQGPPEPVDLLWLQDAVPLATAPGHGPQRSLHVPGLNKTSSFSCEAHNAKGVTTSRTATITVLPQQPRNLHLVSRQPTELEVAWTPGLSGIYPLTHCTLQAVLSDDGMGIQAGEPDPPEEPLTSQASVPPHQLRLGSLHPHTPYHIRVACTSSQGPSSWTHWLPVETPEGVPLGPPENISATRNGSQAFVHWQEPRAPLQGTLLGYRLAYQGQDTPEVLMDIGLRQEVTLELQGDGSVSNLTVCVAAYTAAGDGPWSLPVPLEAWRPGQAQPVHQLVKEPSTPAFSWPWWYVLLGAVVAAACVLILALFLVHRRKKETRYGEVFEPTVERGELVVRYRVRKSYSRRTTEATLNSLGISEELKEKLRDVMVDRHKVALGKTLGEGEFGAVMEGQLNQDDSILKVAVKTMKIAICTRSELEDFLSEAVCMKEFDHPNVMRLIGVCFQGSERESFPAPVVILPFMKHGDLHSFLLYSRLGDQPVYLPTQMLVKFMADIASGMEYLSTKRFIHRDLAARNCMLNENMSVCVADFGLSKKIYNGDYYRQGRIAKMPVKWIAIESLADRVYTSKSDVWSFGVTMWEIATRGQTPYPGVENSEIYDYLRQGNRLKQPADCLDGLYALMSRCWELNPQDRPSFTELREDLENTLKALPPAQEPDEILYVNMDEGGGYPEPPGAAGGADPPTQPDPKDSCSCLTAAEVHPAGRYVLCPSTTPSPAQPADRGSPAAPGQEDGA

[4] = molecular target: T5, Tyrosine-protein kinase Mer (Homo sapiens, UniProt Q12866); assay: Inhibition of N-terminal His6-tagged human MerTk
T5 sequence (Q12866 whole entry): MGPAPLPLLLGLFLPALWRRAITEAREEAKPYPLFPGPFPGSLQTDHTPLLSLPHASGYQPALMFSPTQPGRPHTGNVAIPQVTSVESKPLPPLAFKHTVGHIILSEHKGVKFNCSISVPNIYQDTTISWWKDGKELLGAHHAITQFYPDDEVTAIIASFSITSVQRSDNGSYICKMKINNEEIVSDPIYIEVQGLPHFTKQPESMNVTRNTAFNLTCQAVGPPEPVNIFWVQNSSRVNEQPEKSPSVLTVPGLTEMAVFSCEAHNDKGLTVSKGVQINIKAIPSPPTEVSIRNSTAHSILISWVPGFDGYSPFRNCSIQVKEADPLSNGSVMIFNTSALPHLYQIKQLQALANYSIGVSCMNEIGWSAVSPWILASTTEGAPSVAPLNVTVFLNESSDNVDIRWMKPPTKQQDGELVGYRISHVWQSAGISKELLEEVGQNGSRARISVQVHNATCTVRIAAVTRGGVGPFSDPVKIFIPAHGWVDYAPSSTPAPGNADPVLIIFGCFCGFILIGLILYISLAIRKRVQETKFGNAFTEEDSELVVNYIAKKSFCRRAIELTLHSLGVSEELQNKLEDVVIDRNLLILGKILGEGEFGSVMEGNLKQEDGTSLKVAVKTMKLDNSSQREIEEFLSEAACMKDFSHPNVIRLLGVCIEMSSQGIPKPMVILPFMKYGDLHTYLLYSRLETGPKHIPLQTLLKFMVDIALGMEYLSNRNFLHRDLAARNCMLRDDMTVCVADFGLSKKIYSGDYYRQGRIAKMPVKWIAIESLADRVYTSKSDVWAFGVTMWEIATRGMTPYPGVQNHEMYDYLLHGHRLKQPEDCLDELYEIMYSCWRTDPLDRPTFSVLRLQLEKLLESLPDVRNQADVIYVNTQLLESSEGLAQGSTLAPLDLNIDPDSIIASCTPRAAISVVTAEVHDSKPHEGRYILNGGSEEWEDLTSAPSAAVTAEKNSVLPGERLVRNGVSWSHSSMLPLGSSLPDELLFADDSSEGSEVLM

[5] = molecular target: T6, Proteinase-activated receptor 2 (Homo sapiens, UniProt P55085); assay: Antagonist activity at PAR2 (unknown origin)
T6 sequence (P55085 whole entry): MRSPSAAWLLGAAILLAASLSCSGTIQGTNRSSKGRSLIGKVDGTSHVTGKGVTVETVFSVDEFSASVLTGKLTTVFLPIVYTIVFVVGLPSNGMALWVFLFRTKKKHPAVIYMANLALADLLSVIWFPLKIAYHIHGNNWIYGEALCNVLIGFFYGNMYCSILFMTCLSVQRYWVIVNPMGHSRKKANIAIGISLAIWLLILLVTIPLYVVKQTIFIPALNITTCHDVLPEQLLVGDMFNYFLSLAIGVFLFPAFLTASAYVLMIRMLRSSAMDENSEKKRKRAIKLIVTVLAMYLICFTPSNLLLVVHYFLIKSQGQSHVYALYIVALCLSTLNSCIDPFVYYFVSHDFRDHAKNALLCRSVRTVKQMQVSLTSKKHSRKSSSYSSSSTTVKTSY

[6] = molecular target: T6, Proteinase-activated receptor 2; assay: Binding affinity to PAR2 (unknown origin) assessed as inhibition constant
[7] = molecular target: T7, Protein-arginine deiminase type-4 (Homo sapiens, UniProt Q9UM07); assay: Inhibition of N-terminal GST-tagged PAD4 (unknown origin) expressed in Escherichia coli incubated for 1 hr by spectrophotometric method
T7 sequence (Q9UM07 whole entry): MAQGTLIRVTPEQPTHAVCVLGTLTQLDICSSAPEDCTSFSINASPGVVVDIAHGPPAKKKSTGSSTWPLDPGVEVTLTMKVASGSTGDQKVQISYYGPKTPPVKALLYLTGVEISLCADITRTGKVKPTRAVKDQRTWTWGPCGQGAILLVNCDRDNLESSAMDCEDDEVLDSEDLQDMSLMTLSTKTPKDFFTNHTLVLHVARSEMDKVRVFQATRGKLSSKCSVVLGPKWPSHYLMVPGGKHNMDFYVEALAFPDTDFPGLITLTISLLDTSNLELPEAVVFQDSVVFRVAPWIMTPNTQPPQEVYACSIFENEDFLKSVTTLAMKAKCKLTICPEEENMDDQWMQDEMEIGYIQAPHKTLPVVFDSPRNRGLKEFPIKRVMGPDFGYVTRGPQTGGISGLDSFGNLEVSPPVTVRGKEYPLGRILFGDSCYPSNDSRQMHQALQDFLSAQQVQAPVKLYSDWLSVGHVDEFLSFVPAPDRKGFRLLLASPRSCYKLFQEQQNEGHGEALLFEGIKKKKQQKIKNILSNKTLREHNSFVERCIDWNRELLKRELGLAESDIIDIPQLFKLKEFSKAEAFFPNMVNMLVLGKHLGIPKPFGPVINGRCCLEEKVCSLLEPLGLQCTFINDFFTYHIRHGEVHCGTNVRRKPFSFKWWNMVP

[8] = molecular target: T7, Protein-arginine deiminase type-4; assay: Inhibition of N-terminal GST-tagged PAD4 (unknown origin) expressed in Escherichia coli BL21 (DE3) measured after 1 hr by colorimetric assay

COCCNC(=O)[C@H](CC1CCCCC1)NC(=O)c1ccc(CNc2cccc(Cl)c2)s1
IC50 (Protein phosphatase 1D): 13 nM

CNC(=O)[C@@H](Cc1ccc([N+](=O)[O-])cc1)NC(=O)c1cc(-c2ccc(CN[C@H](C)c3ccc(C)cc3)o2)ccc1Cl
IC50 [1]: 22 nM

COc1cc(Cl)c(C(=O)N[C@@H](CN[C@H]2CC[C@@H](N)CC2)Cc2ccc(C#N)cc2)cc1-c1ccc(CN[C@H](C)c2ccc(C)cc2)o1
IC50 [1]: 22 nM

CN(Cc1ccc2nccn2c1)c1ccc(-c2ccc(-c3ccccc3Cl)cc2)o1
IC50 [2]: 15800 nM
IC50 [3]: 400 nM
IC50 [4]: 5 nM

C[C@@H](C1CCCCC1)n1c(-c2cc3c(cc2Br)OCO3)nc2cc(C(=O)Nc3ccc(C#N)cc3)ccc21
IC50 [5]: 23 nM

C[C@@H](c1ccccc1)n1c(-c2cc3c(cc2Br)OCO3)nc2cc(C(=O)Nc3ccccc3)ccc21
IC50 [5]: 90 nM

NCCCC[C@H](NC(=O)CNC(=O)Nc1ccc2c(c1)c(CN1CCCC1)cn2Cc1c(Cl)cccc1Cl)C(=O)N[C@@H](Cc1ccccc1)C(=O)NC(c1ccccc1)c1ccccc1
Ki [6]: 670 nM

CNC(=O)C[C@@H](NC(=O)[C@@H](Cc1ccccc1)NC(=O)c1c(C)noc1-c1snnc1C)c1ccc(C(F)(F)F)cc1
IC50 [2]: > 100000 nM
IC50 [3]: 16 nM
IC50 [4]: 5 nM

COc1cc(C(=O)N2CCC[C@@H](N)C2)cc2cc(-c3cc4cccnc4n3C)n(N)c12
IC50 [7]: 200 nM
IC50 [8]: 200 nM

Cn1c(-c2cc3cc(C(=O)N4CCCC(N)C4)ccc3n2N)cc2ccccc21 (stereo not given)
IC50 [7]: 3200 nM
